In patent publication US12178845B2, “Methods and compositions relating to the treatment of tumors” (THE GENERAL HOSPITAL CORPORATION, priority 2016, dated 2024):
Peptide text beside a SMILES is read from it. * marks the point of attachment. Cbz = O=C(OCc1ccccc1)*; CH2F = FC*

How the values were obtained:
[1] = system: ASC in HEI-193 cell line; assay: Demethylation of ASC CpG island, ASC expression by RT-PCR; format: cell-based, human
Description: The cultured cells were treated with (5azadeoxycytindine 0.5, 1 or 2.5 uM) or not treated (0) for 3 days.
Real-time quantitative PCR analyses. RNA isolation from tissue samples was conducted with TRIzol™ reagent according to the manufacturer's instructions (Qiagen, USA) and transcribed into cDNA using superscript VILO™ cDNA synthesis kit (Invitrogen, USA). Taqman™ real-time PCR was carried out using RealPlex MasterCycler™ (eppendorf, USA). […] Taqman probes were purchased from life technologies, USA.

[2] = system: HEI-193 cells; assay: In vitro apoptosis staining (TACS 2 TdT-DAB); format: cell-based, human; settings: HEI-193 transfected with pAAV-CBA-hASC
Description: To determine whether the ASC/TMS1-mediated growth inhibition was the result of caspases induced apoptosis, in vitro apoptosis staining was performed using TACS 2 TdT-DAB In situ Apoptosis Detection kit (Trevigen).
Apoptosis assay. In-vitro DNA fragmentation of apoptotic cells was assessed TACS® 2 TdT-DAB in Situ Apoptosis Detection Kit. In brief, HEI-193 cells on the coated cover glass and transfected with dsAAV-CBA-ASC or dsAAV-CBA-GFP. Fragmented DNA were visualized with diaminobenzidine (DAB) and viewed by light microscope. In-vivo apoptosis study was assessed using the same kit on fresh frozen nerves that were sliced to 15 um thin sections using cryostat and fixed in 3.7% formaldehyde.

[3] = system: 08031-9 cells; assay: In vitro apoptotic body staining; format: cell-based, mouse; settings: 08031-9 transfected with pAAV-CBA-hASC
[4] = system: HEI-193 human schwannoma cell line; settings: HEI193 cells transfected with pAAV-CBA-hASC
Description: For all cell types, growth media were supplemented with 10% fetal bovine serum (FBS; Sigma-Aldrich) and 1% penicillin-streptomycin (Cellgro, Herndon, VA) and cells were maintained at 37° C. in a humidified atmosphere of 5% CO2 and 95% air. […] For transfections in 24-well format, 100,000 cells were seeded 24 hours prior to transfection. 1 μl of liofectamine 2000 (Invitrogen, USA) was used for every 500 ng of transfected plasmid in FBS free medium (Optimem, Invitrogen, USA). The DNA/Lipofectamine mix was incubated at room temperature for 30 minutes before spread over the cells and left for 5-6 hours then replaced by fresh medium. The amount of plasmid/lipofectamine was scaled up according to the plate format used.
Cell viability and toxicity assay. The Cell Titer-Glo™ luminescent cell viability assay (Promega, Madison, WI) was used to determine the number of viable cells in culture on the basis of quantitation of ATP levels, an indicator of metabolically active cells. […] The luminescence was measured with a luminometer (Dynex Technologies, Chantilly, VA). Cell death was measured by the LDH assay using CytoTox 96 Non-Radioactive Cytotoxicity Assay kit (Promega) according to the manufacturer's instructions.

Compound | ASC promoter methylation [1] | ASC expression (RT-PCR, normalized to β-actin) ([1]; 0.5, 1 or 2.5 uM for 3 days, ASC-negative HEI-193) | apoptosis in presence of caspase inhibitor [2] | apoptosis in presence of caspase inhibitor ([2]; listed as ZVADFMK) | apoptosis in presence of caspase inhibitor ([2]; listed as pan-caspase inhibitor) | apoptosis in presence of caspase inhibitor [3] | LDH release cytotoxicity in presence of caspase inhibitor [4] | apoptosis in presence of caspase inhibitor ([2]; listed as ZDEVDFMK) | apoptosis in presence of caspase inhibitor ([2]; listed as caspase-3 inhibitor)
Nc1ncn([C@H]2C[C@H](O)[C@@H](CO)O2)c(=O)n1 [5azadeoxycytidine] | reversible | restores expression | – | – | – | – | – | – | –
COC(=O)C[C@H](NC(=O)[C@H](C)NC(=O)[C@@H](NC(=O)OCc1ccccc1)C(C)C)C(=O)CF [ZVAD-FMK] (Cbz-Val-Ala-Asp(OMe)-CH2F) | – | – | no apoptosis | inhibit | abolished | abolished | inhibited | – | –
COC(=O)CC[C@H](NC(=O)[C@H](CC(=O)OC)NC(=O)OCc1ccccc1)C(=O)N[C@H](C(=O)N[C@@H](CC(=O)OC)C(=O)CF)C(C)C [ZDEVD-FMK] | – | – | no apoptosis | – | – | abolished | inhibited | inhibit | abolished
